Entries after “also recorded” stand apart in the source; their conditions may differ.
Assays:
[1] = Chylomicron TAG polyunsaturated fatty acids (gas chromatography of FAME); type: in vivo, human; details: for EPA (20:5n-3) proportion in chylomicron TAGs: one to five hours postprandial, compared to the other breakfasts
Procedure: (§1) This was a postprandial study where fasting blood was taken, followed by the consumption of a breakfast containing placebo (olive oil) or active oils (EPA or DPA) and then hourly post prandial blood samples were taken up to 5-hours.
(§2) The study breakfast consisted of 180 grams of instant mashed potato (Continental Deb™, Unilever, Australasia) mixed with 70 ml boiled water and 20 grams of oil. In each of the three meals 18 grams of lipids consisted of olive oil (La Espanola Pure Olive Oil, Seville, Spain). The DPA breakfast included 2 g of DPA (Equateq Ltd, Breasclete, Callanish, Scotland), the EPA breakfast 2 g of EPA (Equateq Ltd, Breasclete, Callanish, Scotland) and the control (olive oil) meal an additional 2 g of olive oil. EPA and DPA were included in the olive oil as free fatty acids. The subjects could use salt, pepper or chicken flavoured salt with the meal and were provided with water throughout the study period ad libitum. Subjects consumed the study meal within 15 minutes.
(§3) A chylomicron-rich fraction (Svedberg flotation unit (Sf) >400), later abbreviated to “chylomicrons”, was isolated from plasma by ultracentrifugation using a Beckman ultra centrifuge and TLA 100.4 rotor (Beckman instruments, Palo Alto, Calif., USA) as previously described (Ågren et al., 2006). Briefly 1.8 ml of EDTA plasma was overlaid with saline solution (density=1.006 kg/I) in ultracentrifuge tubes and centrifuged at 35,000×g for 30 min at 23° C. The top 1 millilitre was aspirated to remove the chylomicron-rich fraction. All samples were frozen at −80° C. prior analysis.
An internal standard mixture of triheptadecanoin (Sigma-Aldrich, St. Louis, Mo., USA), dinonadecanoylphosphatidylcholine (Sigma-Aldrich, St. Louis, Mo., USA) and cholesterylpentadecanoate (Nu-Chek Prep. Inc., Elysian, Minn., USA) was added to the isolated chylomicrons. Then 1.5 ml methanol, 3 ml chloroform and 0.8 ml 0.88% KCl in water were added and the blend was thoroughly vortexed after each addition. The tubes were centrifuged 2000×g for 3 minutes to separate the layers, and the chloroform rich layer was removed and evaporated to dryness (Folch et al., (1957) J Biol Chem 226:497-509). TAGs and phospholipids were isolated from the extracted lipid mixture with solid phase extraction based on silica columns (Hamilton and Comai, (1988) Lipids 23:1146-1149).
Fatty acid methyl esters (FAME) were prepared with a sodium methoxide method. In short, the lipids were suspended to 1 ml dry diethylether. 25 μl methylacetate and 25 μl sodium methoxide were added and the blend was incubated for 5 minutes while shaken at times. The reaction was stopped with 6 μl acetic acid. The tubes were centrifuged 2000×g for 5 minutes, after which the supernatant was removed and gently evaporated to dryness. The resulting FAME were transferred to 100 μl inserts in hexane (Christie (1982) J Lipid Res 23:1072-1075). The FAME were analysed with gas chromatography (Shimadzu GC-2010 equipped with AOC-20i auto injector, flame ionization detector (Shimadzu corporation, Kyoto, Japan) and wall coated open tubular column DB-23 (60 m×0.25 mm i.d., liquid film 0.25 μm, Agilent technologies, J.W. Scientific, Santa Clara, Calif., USA). Splitless/split injection was used and the split was opened after 1 min. Supelco 37 Component FAME Mix (Supelco, St. Louis, Mo., USA), 68D (Nu-Check-Prep, Elysian, Minn., USA) and GLC-490 (Nu-Check-Prep, Elysian, Minn., USA) were used as external standards.

[2] = Chylomicron phospholipid fatty acids (gas chromatography of FAME); type: in vivo, human; details: at 2 h
Procedure: as §1
as §2, with “EPA and DPA were included in the olive oil as free fatty acids. The subjects could use salt, pepper or chicken flavoured salt with the meal and were provided with water throughout the study period ad libitum. Subjects consumed the study meal within 15 minutes.” left out
Fatty acid methyl esters (FAME) were prepared with a sodium methoxide method. […] The FAME were analysed with gas chromatography (Shimadzu GC-2010 equipped with AOC-20i auto injector, flame ionization detector (Shimadzu corporation, Kyoto, Japan) and wall coated open tubular column DB-23 (60 m×0.25 mm i.d., liquid film 0.25 μm, Agilent technologies, J.W. Scientific, Santa Clara, Calif., USA). Splitless/split injection was used and the split was opened after 1 min. Supelco 37 Component FAME Mix (Supelco, St. Louis, Mo., USA), 68D (Nu-Check-Prep, Elysian, Minn., USA) and GLC-490 (Nu-Check-Prep, Elysian, Minn., USA) were used as external standards.

[3] = Lipidomics of PUFA containing chylomicron TAGs (LC-ESI-MS/MS); type: in vivo, human; details: 3 and 5 hour time points
Procedure: Lipidomic analysis of the one, three and five hour chylomicron samples was performed by liquid chromatography, electrospray ionisation-tandem mass spectrometry using an Applied Biosystems 4000 QTRAP mass spectrometer running Analyst 1.5 software. Liquid chromatography was performed on a Zorbax C18, 1.8 μm, 50×2.1 mm column (Agilent technologies, Santa Clara Calif., USA). The lipids of the chylomicrons were extracted with chloroform:methanol (2:1, 20 volumes), mixed, sonicated (30 mins) and allowed to stand for 20 mins. Samples were centrifuged (16 000×g, 10 min) and the supernatant transferred to a 96 well PPE plate and dried until a stream of nitrogen at 40° C. […] Quantification of individual TAG species was performed using scheduled multiple-reaction monitoring (MRM) in the positive ion mode (Murphy et al., (2007) Anal Biochem 366:59-70). Lipid concentrations (pmol/mL) were calculated by relating the peak area of each species to the peak area of the internal standard of triheptadecanoin (Sigma Aldrich, St Louis Mo., USA) for TAGs, cholestyl ester-18:0D6 (CDN isotopes, Quebec, Canada) for cholesteryl esters, phosphatidyl choline-13:0/13:0 (Avanti Polar Lipids, Alabaster Ala., USA) for phosphatidyl cholines and phosphatidyl ethanolamine-17:0/17:0 (Avanti Polar Lipids, Alabaster Ala., USA) for ethanolamines and phosphatidyl inositols (using Multiquant 1.2 software). […]

[4] = Complaints reported after the study breakfasts; type: in vivo, human
Procedure: as §2
After the DPA meal, there were two cases of diarrhea and one case of upset stomach but no diarrhea. One case of diarrhea was reported after the EPA meal, and there were no complaints after the olive oil meal. All complaints occurred 2 to 3 hours after the breakfast.

[5] = Postprandial plasma triacylglycerol concentration after test breakfasts (randomized cross-over study); type: in vivo, human
Description: (§4) Ten healthy normal weight females between the age of 20 to 30 of took part in a randomized cross over study with three different breakfast meals. […] The baseline values for EPA and DHA proportions in erythrocytes were 1.0±0.1 and 6.7±0.6% (mean±standard error of the mean). Subjects with any form of cardiovascular disease based on self reported medical status and family history were excluded from the study. All subjects provided written informed consent. Ethics approval was obtained from the Deakin University Human Research Ethics Committee (EC2011-023).
as §1, §2
Venous blood was drawn at the fasting state and hourly post prandial for one to five hours. EDTA blood samples were immediately centrifuged for fifteen minutes at 591×g to isolate the plasma.
(§5) TAG concentrations in plasma and the isolated chylomicrons were measured on a Roche Cobas Integra 400 plus autoanalyser (Roche, Lavel, Quebec, Canada) by enzymatic colorimetric method using commercially available kits (TRIGL) as per the manufacturer's instructions (Roche, Lavel, Quebec, Canada).

[6] = Postprandial triacylglycerol concentration in chylomicron-rich fraction after test breakfasts; type: in vivo, human
Description: as §4, §1, §2, §3, §5

[7] = rats, short term supplementation; cited from earlier work
[8] = 2 g in breakfast, 10 subjects, 2 to 3 hours after breakfast

DHA (22:6n-3) in chylomicron TAGs, compared to olive oil breakfast ([1]; at 5 h)	EPA (20:5n-3) proportion in chylomicron TAGs [1]	Amount of DPA and DHA in chylomicron phospholipids, compared to olive oil breakfast [2]	Proportion of EPA in chylomicron phospholipids, compared to the two other breakfasts [2]	TAG 58:9 in chylomicrons, compared to olive oil breakfast [3]	Cases of diarrhea after the meal [4, 8]	DHA (22:6n-3) in chylomicron TAGs, compared to olive oil breakfast ([1]; at 2 h and 3 h)	DPA (22:5n-3) content in chylomicron TAGs ([1]; vs olive oil meal 2-5 h (3 h p=0.06), vs EPA meal 3-5 h)	Cases of upset stomach but no diarrhea after the meal [4, 8]	Subjects reporting diarrhea or upset stomach ([4]; in the three hours following the breakfast)	Compound	Difference between plasma TAG areas, compared to control meal ([5]; 2 g in breakfast, p=0.078)	Plasma TAG concentration at individual time points, compared to control meal ([5]; one and two hours, p=0.024 and p=0.014)	Plasma triglyceride level after consumption ([5]; postprandial)	Incorporation of fatty acids in chylomicrons ([6]; 2 g added to 18 g olive oil, within five hours)	Chylomicron TAG level after the breakfast ([6]; 2 g free fatty acid in 18 g olive oil, up to 5 h postprandial, n=10)	Incremental area under the chylomicron TAG curve, compared to olive oil meal ([6]; 2 g in breakfast, p=0.021)	Incremental area under the chylomicron TAG curve, compared to EPA meal ([6]; 2 g in breakfast, p=0.034)	Chylomicron TAG concentration at individual time points, compared to control meal ([6]; one and two hours, p=0.017 and p=0.068)	Concentration of DHA in liver [7]	Concentration of EPA in the liver, heart and skeletal muscle [7]
significantly increased	significantly higher	increased	increased	significantly more	One	–	–	–	–	CC/C=C\C/C=C\C/C=C\C/C=C\C/C=C\CCCC(=O)O [EPA, eicosapentaenoic acid, reference compound]	–	–	–	–	–	–	–	–	–	–
–	did not raise	–	–	significantly more	two	significantly increased	significantly higher	one	three out of the ten	CCC=CCC=CCC=CCC=CCC=CCCCCCC(=O)O [DPA, 7, 10, 13, 16, 19 docosapentaenoic acid]	tended to be significant	smaller	remained close to fasting levels	almost completely eliminates	remained close to fasting levels; also recorded: remained at almost fasting level	significantly reduced	significantly reduced	smaller	significantly increased	significantly increased
